Source: patent US20250221410A1, “SUBSTITUTED 2-C-AZINES AND SALTS THEREOF, AND USE THEREOF AS HERBICIDAL ACTIVE SUBSTANCES” (BAYER AKTIENGESELLSCHAFT, priority 2022, published 2025)

Columns and labels:
Assay type in all cases: in vivo
[1] = test system: ABUTH: Abutilon theophrasti; assay: Pre-emergence herbicide efficacy at 80 g/ha, ABUTH; conditions: scored visually after about 3 weeks
Procedure, shortened: (§1)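 Seeds sown in pots and covered with soil received WP or EC formulations sprayed onto the soil surface at 80 g/ha, 600 l/ha water, with 0.5% additive. After about 3 weeks in greenhouse, efficacy was visually scored as percent versus untreated controls (100% = plants dead, 0% = like control).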

[2] = test system: DIGSA: Digitaria sanguinalis; assay: Pre-emergence herbicide efficacy at 1280 g/ha, DIGSA; conditions: visual scoring after about 3 weeks vs untreated controls
Procedure, shortened: (§2)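 Pre-emergence pot test in sandy loam: WP or EC formulations sprayed onto covering soil after sowing, as aqueous suspension/emulsion with 0.5% additive at 600 L/ha water. Plants grown in greenhouse; after about 3 weeks, efficacy scored visually as % versus untreated controls (100% = dead, 0% = like control).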

[3] = test system: VERPE: Veronica persica; assay: Post-emergence herbicidal efficacy at 1280 g/ha, VERPE; conditions: visual rating about 3 weeks after treatment vs untreated controls
Procedure, shortened: (§3)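 Greenhouse pot test in sandy loam. Plants at the one-leaf stage, 2–3 weeks after sowing, were sprayed post-emergence with WP or EC formulations in water containing 0.5% additive, at 600 L/ha. Activity was scored visually about 3 weeks later against untreated controls (100% = dead, 0% = as control).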

[4] = test system: AMARE: Amaranthus retroflexus; assay: Post-emergence herbicidal efficacy at 1280 g/ha, AMARE; conditions: rated visually after about 3 weeks vs untreated controls, 100% = plants have died, 0% = like control plants
Procedure, shortened: as §3

[5] = test system: POAAN: Poa annua; assay: Pre-emergence herbicide efficacy at 1280 g/ha, POAAN; conditions: visual scoring after about 3 weeks vs untreated controls
Procedure, shortened: as §2

[6] = test system: AMARE: Amaranthus retroflexus; assay: Pre-emergence herbicide efficacy at 1280 g/ha, AMARE; conditions: visual scoring after about 3 weeks vs untreated controls
Procedure, shortened: as §2

[7] = test system: VERPE: Veronica persica; assay: Post-emergence herbicidal efficacy at 80 g/ha, VERPE; conditions: visual rating about 3 weeks after treatment vs untreated controls
Procedure, shortened: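 Greenhouse plants grown in sandy loam were sprayed at the one-leaf stage, 2 to 3 weeks after sowing, with WP or EC formulations in water containing 0.5% additive at 600 l/ha. Visual rating against untreated controls came about 3 weeks later (100% = dead, 0% = as control).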

[8] = test system: KCHSC: Kochia scoparia; assay: Pre-emergence herbicide efficacy at 1280 g/ha, KCHSC; conditions: visual scoring after about 3 weeks vs untreated controls
Procedure, shortened: as §2

[9] = test system: ALOMY: Alopecurus myosuroides; assay: Pre-emergence herbicide efficacy at 1280 g/ha, ALOMY; conditions: visual scoring after about 3 weeks vs untreated controls
Procedure, shortened: as §2

[10] = test system: AMARE: Amaranthus retroflexus; assay: Pre-emergence herbicide efficacy at 80 g/ha, AMARE; conditions: scored visually after about 3 weeks
Procedure, shortened: as §1

[11] = test system: POAAN: Poa annua; assay: Post-emergence herbicidal efficacy at 1280 g/ha, POAAN; conditions: visual rating about 3 weeks after treatment vs untreated controls
Procedure, shortened: as §3

[12] = test system: ECHCG: Echinochloa crus-galli; assay: Post-emergence herbicidal efficacy at 1280 g/ha, ECHCG; conditions: rated visually after about 3 weeks vs untreated controls, 100% = plants have died, 0% = like control plants
Procedure, shortened: as §3

[13] = test system: DIGSA: Digitaria sanguinalis; assay: Post-emergence herbicidal efficacy at 1280 g/ha, DIGSA; conditions: rated visually after about 3 weeks vs untreated controls, 100% = plants have died, 0% = like control plants
Procedure, shortened: as §3

[14] = test system: DIGSA: Digitaria sanguinalis; assay: Pre-emergence herbicide efficacy at 80 g/ha, DIGSA; conditions: scored visually after about 3 weeks
Procedure, shortened: as §1

[15] = test system: ECHCG: Echinochloa crus-galli; assay: Pre-emergence herbicide efficacy at 80 g/ha, ECHCG; conditions: scored visually after about 3 weeks
Excerpt: (§4) Seeds of monocotyledonous and dicotyledonous weed plants and crop plants were placed in plastic or organic planting pots and covered with soil. The compounds of the invention, formulated in the form of wettable powders (WP) or as emulsion concentrates (EC), were then applied to the surface of the covering soil as aqueous suspension or emulsion with addition of 0.5% additive at a water application rate equivalent to 600 l/ha. After the treatment, the pots were placed in a greenhouse and kept under good growth conditions for the test plants. After about 3 weeks, the efficacy of the preparations was scored visually in comparison with untreated controls as percentages. For example, 100% activity=the plants have died, 0% activity=like control plants. Tables D1 to D12 below show the effects of selected compounds of the general formula (I) according to Table 1 on various harmful plants and an application rate corresponding to 80 g/ha, which were obtained by the experimental procedure mentioned above.

[16] = test system: KCHSC: Kochia scoparia; assay: Post-emergence herbicidal efficacy at 1280 g/ha, KCHSC; conditions: visual rating about 3 weeks after treatment vs untreated controls
Procedure, shortened: as §3

[17] = test system: SETVI: Setaria viridis; assay: Pre-emergence herbicide efficacy at 1280 g/ha, SETVI; conditions: visual scoring vs untreated controls
Procedure, shortened: as §2

[18] = test system: ABUTH: Abutilon theophrasti; assay: Post-emergence herbicidal efficacy at 1280 g/ha, ABUTH; conditions: rated visually after about 3 weeks vs untreated controls, 100% = plants have died, 0% = like control plants
Procedure, shortened: as §3

[19] = test system: VERPE: Veronica persica; assay: Pre-emergence herbicide efficacy at 1280 g/ha, VERPE; conditions: visual scoring vs untreated controls
Procedure, shortened: as §2

[20] = test system: VIOTR: Viola tricolor; assay: Pre-emergence herbicide efficacy at 80 g/ha, VIOTR; conditions: scored visually after about 3 weeks
Excerpt: as §4

[21] = test system: STEME: Stellaria media; assay: Pre-emergence herbicide efficacy at 1280 g/ha, STEME; conditions: visual scoring vs untreated controls
Procedure, shortened: as §2

[22] = test system: MATIN: Matricaria inodora; assay: Pre-emergence herbicide efficacy at 80 g/ha, MATIN; conditions: scored visually after about 3 weeks
Procedure, shortened: as §1

[23] = test system: STEME: Stellaria media; assay: Post-emergence herbicidal efficacy at 1280 g/ha, STEME; conditions: visual rating about 3 weeks after treatment vs untreated controls
Procedure, shortened: as §3

[24] = test system: KCHSC: Kochia scoparia; assay: Post-emergence herbicidal efficacy at 80 g/ha, KCHSC; conditions: visual rating about 3 weeks after treatment vs untreated controls
Method: Seeds of monocotyledonous and dicotyledonous weeds and crop plants were placed in sandy loam in plastic or organic planting pots, covered with soil and cultivated in a greenhouse under controlled growth conditions. 2 to 3 weeks after sowing, the test plants were treated at the one-leaf stage. The compounds of the invention, formulated in the form of wettable powders (WP) or as emulsion concentrates (EC), were then sprayed onto the green parts of the plants as aqueous suspension or emulsion with addition of 0.5% additive at a water application rate of 600 l/ha (converted). After the test plants had been kept in the greenhouse under optimum growth conditions for about 3 weeks, the activity of the preparations was rated visually in comparison to untreated controls. For example, 100% activity=the plants have died, 0% activity=like control plants. Tables B1 to B10 below show the effects of selected compounds of the general formula (I) according to Table 1 on various harmful plants and an application rate corresponding to 80 g/ha, which were obtained by the experimental procedure mentioned above.

Fc1cnc(Oc2cccc(Br)c2Cc2ncc(Cl)cn2)nc1 [Example 1-54]
100%: Pre-emergence efficacy against ABUTH in % [1] | Pre-emergence efficacy against DIGSA [2] | Post-emergence efficacy against VERPE [3] | Post-emergence efficacy at 1280 g/ha against AMARE in % [4] | Pre-emergence efficacy against POAAN [5] | Pre-emergence efficacy against AMARE [6] | Post-emergence efficacy against VERPE [7] | Pre-emergence efficacy against KCHSC [8] | Pre-emergence efficacy against AMARE in % [10] | Post-emergence efficacy against POAAN [11] | Post-emergence efficacy at 1280 g/ha against ECHCG in % [12] | Pre-emergence efficacy against DIGSA in % [14] | Pre-emergence efficacy against ECHCG in % [15] | Post-emergence efficacy against KCHSC [16] | Pre-emergence efficacy against SETVI in % [17] | Post-emergence efficacy at 1280 g/ha against ABUTH in % [18] | Pre-emergence efficacy against VERPE in % [19] | Pre-emergence efficacy against VIOTR in % [20] | Pre-emergence efficacy against STEME in % [21] | Post-emergence efficacy against STEME [23]
90%: Pre-emergence efficacy against ALOMY [9] | Post-emergence efficacy at 1280 g/ha against DIGSA in % [13] | Pre-emergence efficacy against MATIN in % [22]

N#Cc1cccc(Oc2ncc(F)cn2)c1Cc1ncc(Cl)cn1 [Example 1-59]
100%: Pre-emergence efficacy against ABUTH in % [1] | Pre-emergence efficacy against DIGSA [2] | Post-emergence efficacy against VERPE [3] | Post-emergence efficacy at 1280 g/ha against AMARE in % [4] | Pre-emergence efficacy against POAAN [5] | Pre-emergence efficacy against AMARE [6] | Pre-emergence efficacy against KCHSC [8] | Pre-emergence efficacy against ALOMY [9] | Pre-emergence efficacy against AMARE in % [10] | Post-emergence efficacy against POAAN [11] | Post-emergence efficacy at 1280 g/ha against DIGSA in % [13] | Pre-emergence efficacy against DIGSA in % [14] | Pre-emergence efficacy against ECHCG in % [15] | Post-emergence efficacy against KCHSC [16] | Pre-emergence efficacy against SETVI in % [17] | Post-emergence efficacy at 1280 g/ha against ABUTH in % [18] | Pre-emergence efficacy against VERPE in % [19] | Pre-emergence efficacy against VIOTR in % [20] | Pre-emergence efficacy against STEME in % [21] | Pre-emergence efficacy against MATIN in % [22] | Post-emergence efficacy against STEME [23]
90%: Post-emergence efficacy against VERPE [7] | Post-emergence efficacy against KCHSC [24] | Post-emergence efficacy at 1280 g/ha against ECHCG in % [12]
